Residues, ends and D or L forms follow the SMILES beside them.
What was measured:
[1] = tested on: isolated mouse liver mitochondria; assay: Example 19: H2O2 production by isolated mitochondria (luminol chemiluminescence); details: AUC over 20 min
Procedure: Livers will be harvested from mice, homogenized in ice-cold buffer, and centrifuged at 13800×g for 10 min. The pellet will be washed once, re-suspended in 0.3 mL of wash buffer, and placed on ice until use. H2O2 will be measured using luminol chemiluminescence as described previously (Li, et al., Biochim. Biophys. Acta 1428:1-12 (1999). 0.1 mg mitochondrial protein will be added to 0.5 mL potassium phosphate buffer (100 mM, pH 8.0) in the presence of vehicle, peptide conjugates, SPN10(s) alone or in combination with aromatic-cationic peptides, or aromatic-cationic peptides. […] luminol and 0.7 IU horseradish peroxidase will be added, and chemiluminescence will be monitored with a Chronolog Model 560 aggregometer (Havertown, PA) for 20 minutes at 37° C. The amount of H2O2 produced will be quantified as the area under the curve (AUC) over 20 min, and all data will be normalized to AUC produced by mitochondria alone.

hind limb casted mice = assay: Hind limb immobilization (casting) induced skeletal muscle atrophy; assay type: in vivo, mouse
Procedure: 2. […] Casted mice will receive an i.p. injection of saline vehicle (0.3 mL), peptide conjugate, aromatic-cationic peptide, SPN10, or SPN10 with aromatic-cationic peptides. A control group of untreated mice will be also used in this experiment.
Subjects will receive s.c. injections of saline vehicle (0.3 mL) or the peptide conjugate, aromatic-cationic peptide or SPN10 (alone or in combination with aromatic-cationic peptides) (1.5 mg/kg for the peptide conjugate and equivalent molar doses of aromatic-cationic peptide and/or SPN10 based on concentration of the aromatic-cationic peptide or SPN10 administered in the peptide conjugate group) administered once daily during the immobilization period.
Immobilization. Mice will be anesthetized with gaseous isoflurane (3% induction, 0.5-2.5%) maintenance). Anesthetized animals will be cast-immobilized bilaterally with the ankle joint in the plantar-flexed position to induce maximal atrophy of the soleus and plantaris muscle. Both hind limbs and the caudal fourth of the body will be encompassed by a plaster cast. A thin layer of padding will be placed underneath the cast in order to prevent abrasions. In addition, to prevent the animals from chewing on the cast, one strip of fiberglass material will be applied over the plaster. The mice will be monitored on a daily basis for chewed plaster, abrasions, venous occlusion, and problems with ambulation.
Preparation of permeabilized muscle fibers. Permeabilized muscle fibers will be prepared as previously described. Korshunov, et al., FEBS Lett 416:15-18, 1997; Tonkonogi, et al., Pfliigers Arch 446:261-269, 2003. Briefly, the muscle will be trimmed of connective tissue and cut down to fiber bundles (4-8 mg wet wt). Under a microscope and using a pair of extra-sharp forceps, the muscle fibers will be gently separated in ice-cold buffer X containing 60 mM K-MES, 35 mM KCl, 7.23 mM K2EGTA, 2.77 mM CaK2EGTA, 20 mM imidazole, 0.5 mM DTT, 20 mM taurine, 5.7 mM ATP, 15 mM PCr, and 6.56 mM MgCl2·6 H2O (pH 7.1, 295 mosmol/kg H2O) to maximize surface area of the fiber bundle. To permeabilize the myofibers, each fiber bundle will be incubated in ice-cold buffer X containing 50 μg/mL saponin on a rotator for 30 minutes at 4° C. The permeabilized bundles will be washed in ice-cold buffer Z, containing 110 mM K-MES, 35 mM KCl, 1 mM EGTA, 5 mM K2HPO4, and 3 mM MgCl2, 0.005 mM glutamate, and 0.02 mM malate and 0.5 mg/mL BSA, pH 7.1.
Mitochondrial respiration in permeabilized fibers. Respiration will be measured polarographically in a respiration chamber maintained at 37° C. (Hansatech Instruments, United Kingdom). After the respiration chamber will be calibrated, permeabilized fiber bundles will be incubated with 1 mL of respiration buffer Z containing 20 mM creatine to saturate creatine kinase (Saks, et al., Mol. Cell Biochem. 184:81-100, 1998; Walsh, et al., J. Physiol. 537:971-978,2001). Flux through complex I will be measured using 5 mM pyruvate and 2 mM malate. The maximal respiration (state 3), defined as the rate of respiration in the presence of ADP, will be initiated by adding 0.25 mM ADP to the respiration chamber. Basal respiration (state 4) will be determined in the presence of 10 µg/mL oligomycin to inhibit ATP synthesis. The respiratory control ratio (RCR) will be calculated by dividing state 3 by state 4 respiration.
Mitochondrial ROS production. Mitochondrial ROS production will be determined using Amplex™ Red (Molecular Probes, Eugene, OR, U.S.A.). The assay will be performed at 37° C. in 96-well plates using succinate as the substrate. Superoxide dismutase (SOD) will be added at 40 units/mL to convert all superoxide into H2O2. Resorufin formation (Amplex™ Red oxidation by H2O2) will be monitored at an excitation wavelength of 545 nm and an emission wavelength of 590 nm using a multi-well plate reader fluorometer (SpectraMax, Molecular Devices, Sunnyvale, CA, U.S.A.). […]

With N=C(N)NCCC[C@H](NC(=O)[C@@H](N)Cc1c[nH]c2ccccc12)C(=O)N[C@@H](Cc1c[nH]c2ccccc12)C(=O)N[C@@H](CCCCN)C(N)=O [SPN10, H-L-Trp-L-Arg-L-Trp-L-Lys-NH2] (H-WRWK-NH2) the “amount of H2O2 production” value [1] was “significantly reduced”, the “oxidative damage in soleus muscle, lipid peroxidation via 4-hydroxynonenal (4-HNE)” value (hind limb casted mice; casting) was “overcome” and the “protease activity in the soleus muscle” value (hind limb casted mice; casting) was “attenuated or prevented”. For the same compound, the “increase in H2O2 production by mitochondria isolated from soleus muscle” value (hind limb casted mice; casting for 7 days) was “prevented”, the “decrease in soleus muscle weight and mitochondrial state 3 respiration” value (hind limb casted mice; hind limb casting for 7 days) was “reversed” and the “calpain-1, caspase-3 and caspase-12 proteolytic degradation of muscle” value (hind limb casted mice; mouse, in vivo) was “prevented”. For the same compound, the “oxidative damage and associated muscle weakness induced by hind limb immobilization” value (hind limb casted mice; mouse, in vivo) was “prevent”.

Reference: patent publication US20240108740A1, “THERAPEUTIC COMPOSITIONS INCLUDING SPN10 AND USES THEREOF” (Stealth BioTherapeutics Inc., priority 2022, published 2024)
